Test results published in ChEMBL document CHEMBL1147255, “Isolation and structure elucidation of Sch 642305, a novel bacterial DNA primase inhibitor produced by Penicillium verrucosum” (J Nat Prod, 2003).
Converted amounts (≈) assume the structure as drawn.

Test system: Escherichia coli
Test: Antibacterial activity against Escherichia coli HS294 after 18 hrs by microtitre plate method
Type: functional

SMILES: C[C@H]1CCCC[C@H]2C(=O)C=C[C@H](O)[C@@H]2CC(=O)O1
- MIC: 40 µg/mL (≈ 159 µM)
